# Assay results reported in patent US20020028938A1, “Prostaglandin endoperoxide H synthase biosynthesis inhibitors” (priority 1997, published 2002).
row,SMILES,melting point
1,C[Se](=O)(=O)c1ccc(-c2cnn(-c3ccc(F)cc3)c(=O)c2-c2ccc(F)cc2)cc1,110 to 150 °C
2,"CS(=O)(=O)c1ccc(-c2cn[nH]c(=O)c2-c2ccc(F)cc2)cc1 [Example 11, 4-(4-Fluorophenyl)-5-[4-(methylsulfonyl)phenyl]-3(2H)-pyridazinone]",255 to 256 °C
3,"CS(=O)(=O)c1ccc(-c2cnn(Cc3ccccn3)c(=O)c2-c2ccc(F)cc2)cc1 [Example 27, 2-(2-Pyridylmethyl)-4-(4-fluorophenyl)-5-[4-(methylsulfonyl)phenyl]-3(2H)-pyridazinone]",182 to 184 °C
4,"CS(=O)(=O)c1ccc(-c2cnn(Cc3ccncc3)c(=O)c2-c2ccc(F)cc2)cc1 [Example 28, 2-(4-Pyridylmethyl)-4-(4-fluorophenyl)-5-[4-(methylsulfonyl)phenyl]-3(2H)-pyridazinone]",153 to 156 °C
5,"CS(=O)(=O)c1ccc(-c2cnn(Cc3cccnc3)c(=O)c2-c2ccc(F)cc2)cc1 [Example 29, 2-(3-Pyridylmethyl)-4-(4-fluorophenyl)-5-[4-(methylsulfonyl)phenyl]-3(2H)-pyridazinone]",160 to 161 °C
6,"CS(=O)(=O)c1ccc(-c2cnn(Cc3ccc4cc(F)ccc4n3)c(=O)c2-c2ccc(F)cc2)cc1 [Example 30, 2-(6-Fluoroquinolin-2-ylmethyl)-4-(4-fluorophenyl)-5-[4-(methylsulfonyl)phenyl]-3(2H)-pyridazinone]",116 to 119 °C
7,"CCN(CC)c1ccc(C(=O)Cn2ncc(-c3ccc(S(C)(=O)=O)cc3)c(-c3ccc(F)cc3)c2=O)cc1 [Example 44, 2-(4-Diethylaminophenacyl)-4-(4-fluorophenyl)-5-[4-(methylsulfonyl)phenyl]-3(2H)-pyridazinone]",105 to 108 °C
8,"CS(=O)(=O)c1ccc(-c2cnn(CC(=O)c3ccc(Cl)cc3)c(=O)c2-c2ccc(F)cc2)cc1 [Example 47, 2-(4-Chlorophenacyl)-4-(4-fluorophenyl)-5-[4-(methylsulfonyl)phenyl]-3(2H)-pyridazinone]",186 to 188 °C
9,"CS(=O)(=O)c1ccc(-c2cnn(CC(=O)c3ccc(C#N)cc3)c(=O)c2-c2ccc(F)cc2)cc1 [Example 49, 2-(4-Cyanophenacyl)-4-(4-fluorophenyl)-5-[4-(methylsulfonyl)phenyl]-3(2H)-pyridazinone]",188 to 189 °C
10,"CS(=O)(=O)c1ccc(-c2cnn(CCc3ccccc3)c(=O)c2-c2ccc(F)cc2)cc1 [Example 51, 2-Phenethyl-4-(4-fluorophenyl)-5-[4-(methylsulfonyl)phenyl]-3(2H)-pyridazinone]",170 to 171 °C
11,"CS(=O)(=O)c1ccc(-c2cnn(CC(=O)c3ccc(OC(F)(F)F)cc3)c(=O)c2-c2ccc(F)cc2)cc1 [Example 55, 2-(4-Trifluoromethoxyphenacyl)-4-(4-fluorophenyl)-5-[4-(methylsulfonyl)phenyl]-3(2H)-pyridazinone]",160 to 161 °C
12,"CS(=O)(=O)c1ccc(-c2cnn(CC(=O)c3csc4ccccc34)c(=O)c2-c2ccc(F)cc2)cc1 [Example 57, 2-[2-(Benzo[b]thien-3-yl)-2-oxoethyl]-4-(4-fluorophenyl)-5-[4-(methylsulfonyl)phenyl]-3(2H)-pyridazinone]",183 to 184 °C
13,"CC(C)(C)C(=O)Cn1ncc(-c2ccc(S(C)(=O)=O)cc2)c(-c2ccc(F)cc2)c1=O [Example 59, 2-(3,3-Dimethyl-2-oxobutyl)-4-(4-fluorophenyl)-5-[4-(methylsulfonyl)phenyl]-3(2H)-pyridazinone]",168 to 170 °C
14,"CS(=O)(=O)c1ccc(-c2cnn(Cc3cc4ccccc4s3)c(=O)c2-c2ccc(F)cc2)cc1 [Example 61, 2-(2-Benzo[b]thienylmethyl)-4-(4-fluorophenyl)-5-[4-(methylsulfonyl)phenyl]-3(2H)-pyridazinone]",93 to 96 °C
15,"Cc1n[nH]c(=O)c(-c2ccc(F)cc2)c1-c1ccc(S(C)(=O)=O)cc1 [Example 63, 4-(4-Fluorophenyl)-5-[4-(methylsulfonyl)phenyl]-6-methyl-3(2H)-pyridazinone]",290 °C (dec.)

# Next, values leading:
row,melting point,SMILES
1,150 to 152 °C,"NS(=O)(=O)c1ccc(-c2cnn(CC(F)(F)F)c(=O)c2Oc2ccc(F)cc2)cc1 [Example 71, 2-(2,2,2-Trifluoroethyl)-4-(4-fluorophenoxy)-5-[4-(aminosulfonyl)phenyl]-3(2H)-pyridazinone]"
2,166 to 167 °C,"CS(=O)(=O)c1ccc(-c2cnn(Cc3ccccc3)c(=O)c2Cl)cc1 [Example 78, 2-Benzyl-4-chloro-5-[4-(methylsulfonyl)phenyl]-3(2H)-pyridazinone]"
3,154 to 156 °C,"Cc1ccc(-c2c(-c3ccc(S(C)(=O)=O)cc3)cnn(CC(F)(F)F)c2=O)cc1 [Example 79, 2-(2,2,2-Trifluoroethyl)-4-(4-methylphenyl)-5-[4-(methylsulfonyl)phenyl]-3(2H)-pyridazinone]"
4,215 to 217 °C,"Cc1ccsc1-n1ncc(-c2ccc(S(C)(=O)=O)cc2)c(-c2ccc(F)cc2)c1=O [Example 95, 2-(3-Methyl-2-thienyl)-4-(4-fluorophenyl)-5-[4-(methylsulfonyl)phenyl]-3(2H)-pyridazinone]"
5,103 to 105 °C,"CS(=O)(=O)c1ccc(-c2cnn(-c3cccc(C(F)(F)F)c3)c(=O)c2-c2ccc(Cl)cc2)cc1 [Example 101, 2-(3-Trifluoromethylphenyl)-4-(4-chlorophenyl)-5-[4-(methylsulfonyl)phenyl]-3(2H)-pyridazinone]"
6,156 to 157 °C,"CS(=O)(=O)c1ccc(-c2cnn(Cc3cccc([N+](=O)[O-])c3)c(=O)c2-c2ccc(F)cc2)cc1 [Example 116, 2-(3-Nitrobenzyl)-4-(4-fluorophenyl)-5-[4-(methylsulfonyl)phenyl]-3(2H)-pyridazinone]"
7,206 to 208 °C,NS(=O)(=O)c1ccc(-c2cnn(C3CC=CCC3)c(=O)c2-c2ccc(F)cc2)cc1 (stereo not drawn) [Example 126]
8,180 to 181 °C,"CC1CCCC1n1ncc(-c2ccc(S(C)(=O)=O)cc2)c(-c2ccc(F)cc2)c1=O (stereo not drawn) [Example 131, 2-(2-Methylcyclopentyl)-4-(4-fluorophenyl)-5-[4-(methylsulfonyl)phenyl]-3(2H)-pyridazinone]"
9,201 to 203 °C,"NS(=O)(=O)c1ccc(-c2cnn(Cc3c(F)cc(F)cc3F)c(=O)c2-c2ccc(F)cc2)cc1 [Example 151, 2-(2,4,6-Trifluorobenzyl)-4-(4-fluorophenyl)-5-[4-(aminosulfonyl)phenyl]-3(2H)-pyridazinone]"
10,110 to 116 °C,"CS(=O)(=O)c1ccc(-c2cnn(-c3ccc([N+](=O)[O-])cc3)c(=O)c2-c2ccc(F)cc2)cc1 [Example 157, 2-(4-Nitrophenyl)-4-(4-fluorophenyl)-5-[4-(methylsulfonyl)phenyl]-3(2H)-pyridazinone]"
11,132 to 136 °C,"CC(C)(C)c1ccc(-n2ncc(-c3ccc(S(C)(=O)=O)cc3)c(-c3ccc(F)cc3)c2=O)cc1 [Example 159, 2-(4-t-Butylphenyl)-4-(4-fluorophenyl)-5-[4-(methylsulfonyl)phenyl]-3(2H)-pyridazinone]"
12,234 to 236 °C,"CS(=O)(=O)c1ccc(-c2cnn(-c3ccccc3C=O)c(=O)c2-c2ccc(F)cc2)cc1 [Example 163, 2-(2-Formylphenyl)-4-(4-fluorophenyl)-5-[4-(methylsulfonyl)phenyl]-3(2H)-pyridazinone]"
